# Data as given in patent US20020173452A1, “Cytostatic-glycoconjugates having specifically cleavable linking units” (priority 2000, published 2002).
# *1 amine or outer side, *2 acyl side, *3 side chain or, on linkers, in order; H or OH if unused. Where a SMILES comes first, the peptide text is derived from it. [ ]: non-standard residue; d: D form. The star is where a group is joined. X1 = CO[C@H]1[C@@H](O)[C@@H](C)OC(Oc2ccc(NC(=S)*)cc2)[C@H]1O; X2 = CC[C@@]1(O*)C(=O)OCc2c1cc1n(c2=O)Cc2cc3ccccc3nc2-1; X3 = CO[C@H]1[C@@H](O)[C@@H](C)OC(Oc2ccc(N*)cc2)[C@H]1O; CO = O=C([*:1])[*:2]
# Legend:
# [1] = biological target: T1, MMP-2 (Homo sapiens, UniProt P08253); experiment: Cleavage of conjugates by MMP-2 in buffer; type: biochemical; conditions: after 6 h incubation with MMP-2 in buffer pH 7.5, HPLC peak areas
# T1 construct: purchased Calbiochem
# T1 sequence (P08253 110-660): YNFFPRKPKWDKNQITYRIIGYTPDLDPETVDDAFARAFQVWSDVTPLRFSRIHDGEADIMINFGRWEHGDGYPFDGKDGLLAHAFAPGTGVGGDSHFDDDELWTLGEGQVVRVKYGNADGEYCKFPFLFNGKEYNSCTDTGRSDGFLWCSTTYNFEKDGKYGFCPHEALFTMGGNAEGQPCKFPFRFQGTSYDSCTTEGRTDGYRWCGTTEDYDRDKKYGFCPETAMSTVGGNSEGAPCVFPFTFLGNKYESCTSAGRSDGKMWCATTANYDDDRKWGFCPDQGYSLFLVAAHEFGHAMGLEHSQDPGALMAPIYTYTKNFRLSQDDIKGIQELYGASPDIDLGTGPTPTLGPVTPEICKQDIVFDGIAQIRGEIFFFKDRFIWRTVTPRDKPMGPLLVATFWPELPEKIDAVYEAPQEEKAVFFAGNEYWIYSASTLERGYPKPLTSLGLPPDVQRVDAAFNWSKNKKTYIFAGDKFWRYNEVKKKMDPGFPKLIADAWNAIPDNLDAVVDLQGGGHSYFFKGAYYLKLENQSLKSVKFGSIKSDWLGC
# Method: D. Cleavage of Conjugates by MMP-2 in Buffer
# 2.5 μl MMP-2 (Calbiochem) with a specific activity of 60μU/μl are incubated with 10 nM of the conjugates exemplified in the example series 1-25 in 1 ml of a medium consisting of 50 mM Tris-HCl pH 7.5, 0.2 M NaCl, 10 mM CaCl2*2H2O and 0,05% Brij 35. The enzyme mediated cleavage of the conjugates is detected by HPLC analysis using an RP18 (5 μM) column with 70% HClO4 /water (0.4% v/v) as eluent A and acetonitrile as eluent B (UV detection at […]). The efficiency of the cleavage is assessed by comparing the peak areas of the intact conjugate (starting material) and the cleavage product (tripeptide conjugate of camptothecin) after 6 h and 24 h incubation (cf, Table 4).
# [2] = test system: SW 480 human large intestine cell line; experiment: Growth inhibition test (MTT) for cytotoxic properties on tumour cell lines; type: cell-based; conditions: SW480 cells, growth checked after day 6, read-out: IC50 of the cytotoxic action on tumour cell lines, SW480
# Method: (§1) A: Growth Inhibition Test for the Determination of the Cytotoxic Properties on Various Tumour Cell Lines
# (§2) The human large intestine cell lines SW 480 and HT29 (ATCC No. CCL 228 and HTB38 and the mouse melanoma cell line B16F10 (CRL 6475) were grown to confluence in Roux dishes in RPMI 1640 medium with addition of 10% FCS. They were then trypsinized and taken up in RPMI plus 10% FCS to a cell count of 50,000 cells or, for B16F10, 20,000 cells per ml. 100 μl of cell suspension/well were added to a 96 microwell plate and incubated at 37° C. for 1 day in a CO2 incubator. A further 100 μl of RPMI medium and 1 μl of DMSO were then added with the test substances. The growth was checked after day 6. For this, 25 μl of MTT solution (3-(4,5-dimethylthiazol-2-yl)-2,5-diphenyltetrazolium bromide) was added to each well at a starting concentration of 5 mg/ml of H2O. The plate was incubated at 37° C. for 5 hours in a CO2 incubator. The medium was then aspirated and 100 μl of 1-propanol/well were added. After shaking with 100 μl of H2O for 30 min, the extinction was measured at 595 nm using a Multiplate Reader (BIO-RAD 3550-UV).
# (§3) The cytostatic action is indicated in Table 1 as an IC50 value, in each case for the individual cell lines.
# [3] = test system: B16F10 mouse melanoma cell line; experiment: as above; type: cell-based; conditions: B16F10 cells, growth checked after day 6, read-out: IC50 of the cytotoxic action on tumour cell lines, B16F10
# Method: as §1, §2, §3
# [4] = test system: HT29 human large intestine cell line; experiment: as above; type: cell-based; conditions: HT29 cells, growth checked after day 6, read-out: IC50 of the cytotoxic action on tumour cell lines, HT29
# Method: as §1, §2, §3
# [5] = test system: subcutaneously growing melanoma xenograft model (MEXF 989); experiment: In-vivo inhibition of tumour growth using a nude mouse model; set-up: species or system athymic nude mice (NMRI nu/nu strain); conditions: for optimal T/C in % / lethality: MEXF 989 xenograft, nude mice, i.v. or i.p., day 1-3 and day 15-17; for lethality: dead/5 mice; for inhibition of the tumor growth (in words): subcutaneously growing melanoma xenograft MEXF 989, nude mice
# From the text: B. In-Vivo Inhibition or Tumour Growth Using a Nude Mouse Model
# In all in-vivo experiments for investigating the inhibition of tumour growth, athymic nude mice (NMRI nu/nu strain) were used. The tumour was developed by serial passage in nude mice. The human origin of the tumour was confirmed by isoenzymatic and immunohistochemical methods.
# The tumour was implanted subcutaneously in both flanks of nu/nu nude mice 6 to 8 weeks old. The treatment was started, depending on the doubling time, as soon as the tumours had reached a diameter of 5-7 mm. The mice were assigned to the treatment group or the control group (5 mice per group having 8-10 assessable tumours) by randomization. The individual tumours of the control group all grew progressively.
# The size of the tumours was measured in two dimensions by means of a slide gauge. The tumour volume, which correlated well with the cell count, was then used for all assessments. The volume was calculated according to the formula “length×breadth×breadth/2” ([a×b^2]/2, a and b represent two diameters arranged at right angles).
# The values of the relative tumour volume (RTV) were calculated for each individual tumour by dividing the tumour size on day×with the tumour size on day 0 (at the time of randomization). The average values of the RTV were then used for the further assessment.
# The inhibition of the increase of the tumour volume (tumour volume of the test group/control group, T/C, in percent) was the final measured value.
# The compounds can be administered with a daily or an intermittent therapy schedule through a couple of days either by intraperitoneal, intravenious, oral or subcutaneous route.
# The compounds are dissolved in water or in PEG400/water 2:1 and are administered intravenously or intraperitoneally from day 1-3 and day 15-17.
# [6] = test system: hemopoietic stem cells (bone marrow cells); experiment: cells; type: cell-based, mice; conditions: murine bone marrow cells, recombinant murine GM-CSF, 7 days
# Method: C. CSF-Induced Proliferation of Hemopoietic Stem Cells
# Bone marrow cells are flushed out of the femur of mice. 105 cells are incubated in McCoy 5A medium (0.3% agar) together with recombinant murine GM-CSF (Genzyme; parent cell colony formation) and the substances (10^−4 to 100 μg/ml) at 37° C. and 7% CO2. 7 days later, the colonies ([…]) and clusters (17-50 cells) are counted.
smiles,measurement,setting,value
CC[C@@]1(OC(=O)[C@H](NC(=O)[C@@H](CC(N)=O)NC(=O)[C@@H](CC(C)C)NC(=O)CNC(=O)[C@H](CC(C)C)NC(=O)[C@H]2CCCN2C(=S)Nc2ccc(OC3O[C@H](C)[C@H](O)[C@H](OC)[C@@H]3O)cc2)C(C)C)C(=O)OCc2c1cc1n(c2=O)Cc2cc3ccccc3nc2-1 (stereo partly drawn) [Example 5] (X1-[dP]LG[dL][dN][dV]-X2),"MMP-2 mediated cleavage, peak area product/educt × 100",[1],166
same,IC50,[2],80 nM
same,IC50,[3],300 nM
same,IC50,[4],60 nM
same,optimal T/C in %,[5]; 6 mg/kg/day,19.1%
same,lethality,[5]; 6 mg/kg/day,1/5
same,inhibition of the tumor growth (in words),[5],effected inhibitions of the tumor growth
CC[C@@]1(OC(=O)[C@H](NC(=O)[C@@H](Cc2c[nH]cn2)NC(=O)[C@@H](CC(C)C)NC(=O)CNC(=O)[C@H](CC(C)C)NC(=O)[C@H]2CCCN2C(=O)Nc2ccc(OC3O[C@H](C)[C@H](O)[C@H](OC)[C@@H]3O)cc2)C(C)C)C(=O)OCc2c1cc1n(c2=O)Cc2cc3ccccc3nc2-1.Cl (stereo partly drawn) [Example 4] ({X3-CO}-[dP]LG[dL][dH][dV]-X2),"MMP-2 mediated cleavage, peak area product/educt × 100",[1],700
same,IC50,[2],50 nM
same,IC50,[3],150 nM
same,IC50,[4],40 nM
CC[C@@]1(OC(=O)[C@H](NC(=O)[C@@H](CC(N)=O)NC(=O)[C@@H](CC(C)C)NC(=O)CNC(=O)[C@H](CC(C)C)NC(=O)[C@H]2CCCN2C(=O)Nc2ccc(OC3O[C@H](C)[C@H](O)[C@H](OC)[C@@H]3O)cc2)C(C)C)C(=O)OCc2c1cc1n(c2=O)Cc2cc3ccccc3nc2-1 (stereo partly drawn) [Example 6] ({X3-CO}-[dP]LG[dL][dN][dV]-X2),"MMP-2 mediated cleavage, peak area product/educt × 100",[1],80
same,IC50,[2],60 nM
same,IC50,[3],300 nM
same,IC50,[4],50 nM
CC[C@@]1(OC(=O)[C@H](NC(=O)[C@@H](Cc2c[nH]cn2)NC(=O)[C@@H](CC(C)C)NC(=O)CNC(=O)[C@H](CC(C)C)NC(=O)[C@H]2CCCN2C(=S)Nc2ccc(OC3O[C@H](C)[C@H](O)[C@H](OC)[C@@H]3O)cc2)C(C)C)C(=O)OCc2c1cc1n(c2=O)Cc2cc3ccccc3nc2-1.Cl (stereo partly drawn) [Example 3] (X1-[dP]LG[dL][dH][dV]-X2),IC50 of inhibition of colony counts of hemopoietic stem cells,[6],0.04 µg/mL
same,"MMP-2 mediated cleavage, peak area product/educt × 100",[1],609
same,IC50,[2],100 nM
same,IC50,[3],150 nM
same,IC50,[4],50 nM
same,optimal T/C in %,[5]; 8 mg/kg/day,19.1%
same,lethality,[5]; 8 mg/kg/day,1/5
CC[C@@]1(OC(=O)[C@H](NC(=O)[C@@H](CC(=O)O)NC(=O)[C@@H](CC(C)C)NC(=O)CNC(=O)[C@H](CC(C)C)NC(=O)[C@H]2CCCN2C(=S)Nc2ccc(OC3O[C@H](C)[C@H](O)[C@H](OC)[C@@H]3O)cc2)C(C)C)C(=O)OCc2c1cc1n(c2=O)Cc2cc3ccccc3nc2-1 (stereo partly drawn) [Example 7] (X1-[dP]LG[dL][dD][dV]-X2),"MMP-2 mediated cleavage, peak area product/educt × 100",[1],9
same,IC50,[2],200 nM
same,IC50,[3],600 nM
same,IC50,[4],100 nM
CC[C@@]1(OC(=O)[C@H](NC(=O)[C@@H](Cc2c[nH]cn2)NC(=O)CNC(=O)[C@H](CC(C)C)NC(=O)[C@H]2CCCN2C(=S)Nc2ccc(OC3O[C@H](C)[C@H](O)[C@H](OC)[C@@H]3O)cc2)C(C)C)C(=O)OCc2c1cc1n(c2=O)Cc2cc3ccccc3nc2-1.Cl (some centres unmarked) [Example 2],IC50,[2],150 nM
same,IC50,[4],70 nM
same,inhibition of the tumor growth (in words),[5],effected inhibitions of the tumor growth
"CC[C@@]1(O)C(=O)OCc2c1cc1n(c2=O)Cc2cc3ccccc3nc2-1 [Camptothecin, 20(S)-Camptothecin, reference compound]",IC50,"[6]; Mus musculus, Bone marrow cell, 168 h, read-out: IC50 of inhibition of colony counts of hemopoietic stem cells",0.00025 µg/mL
CC[C@@]1(OC(=O)[C@H](NC(=O)[C@@H](Cc2c[nH]cn2)NC(=O)[C@@H](CC(C)C)NC(=O)CNC(=O)[C@H](CC(C)C)NC(=O)[C@H]2CCCN2C(=S)Nc2ccc(OC3O[C@H](C)[C@H](O)[C@H](OC)[C@@H]3O)cc2)C(C)C)C(=O)OCc2c1cc1n(c2=O)Cc2cc3ccccc3nc2-1.Cl (stereo partly drawn) [Example 12] (X1-[dP]LG[dL][dH][dV]-X2),IC50 of inhibition of colony counts of hemopoietic stem cells,[6],0.03 µg/mL
same,IC50,[2],150 nM
same,IC50,[3],300 nM
same,IC50,[4],100 nM
CC[C@@]1(OC(=O)[C@H](NC(=O)[C@@H](Cc2c[nH]c3ccccc23)NC(=O)[C@@H](CC(C)C)NC(=O)CNC(=O)[C@H](CC(C)C)NC(=O)[C@H]2CCCN2C(=S)Nc2ccc(OC3O[C@H](C)[C@H](O)[C@H](OC)[C@@H]3O)cc2)C(C)C)C(=O)OCc2c1cc1n(c2=O)Cc2cc3ccccc3nc2-1 (stereo partly drawn) [Example 9] (X1-[dP]LG[dL][dW][dV]-X2),"MMP-2 mediated cleavage, peak area product/educt × 100",[1],64
same,IC50,[2],400 nM
same,IC50,[3],1000 nM
same,IC50,[4],300 nM
